The values below come from patent publication US10112944B2, “Heterocyclic compounds useful as inhibitors of TNF” (BRISTOL-MYERS SQUIBB COMPANY, priority 2015, dated 2018).

Molecules are shown by their SMILES.

Chain of TNFα (P01375 77-233): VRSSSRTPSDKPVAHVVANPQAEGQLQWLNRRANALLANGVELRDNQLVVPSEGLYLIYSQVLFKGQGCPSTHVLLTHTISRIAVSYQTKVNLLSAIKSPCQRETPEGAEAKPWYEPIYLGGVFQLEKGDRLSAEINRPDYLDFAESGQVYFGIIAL

The target in the assay is TNFα (Homo sapiens (Human), UniProt P01375). Nature of the assay: TNF induced HEK-Blue assay. The format is cell-based. The following applies: HEK-Blue-CD40L cells, TNFα 0.5 ng/ml, NF-κB-driven secreted alkaline phosphatase reporter, 18 h. On the procedure:
TNF or CD40L-Induced HEK-Blue Assay
Test compounds serially diluted in DMSO were plated in an assay plate (Labcyte, Cat. #LP-0200) at final concentrations ranging from 0.004 μM to 25 μM. TNFα (final concentration 0.5 ng/ml) or CD40L (final concentration 30 ng/ml) in assay buffer [DMEM, 4.5 g/l glucose (Gibco, Cat. 21063-029), 10% FBS (Sigma, F4135), 1% Penicillin-Streptomycin (Gibco, Cat. 15140-122), 1% Anti-Anti (Gibco, Cat. 15240-112) and 2 mM L-glutamine (Gibco, Cat. 25030-081)] was then added to the assay plate. After a 30 minute pre-incubation at 37° C. and 5% CO2, HEK-Blue-CD40L cells (InvivoGen, Cat. Code hkb-cd40) containing a NF-κB-driven secreted alkaline phosphatase reporter gene were seeded into the assay plate at a density of 20,000 cells per well. This plate was then incubated for 18 h at 37° C. and 5% CO2. Secreted alkaline phosphatase expression was measured using QUANTI-Blue (InvivoGen, Cat. Code rep-qbl) according to manufacturer's specifications and the assay plate was read on a PerkinElmer Envision at 620 nm.
Inhibition data for the test compound over a range of concentrations was plotted as percentage inhibition of the test compound (100%=maximum inhibition). IC50 values were determined after correcting for background [(sample read−mean of low control)/(mean of high control−mean of low control)] where by the low control is DMSO without stimulation and high control is DMSO with stimulation. The IC50 is defined as the concentration of test compound which produces 50% inhibition and was quantified using the 4 parameter logistic equation to fit the data.
In turn, `COc1ccc(-c2ccc3nc4c(n3c2)N(c2cc(F)ccc2C)CCC4)cn1` [Example 25, 1-(5-Fluoro-2-methylphenyl)-8-(6-methoxypyridin-3-yl)-1,2,3,4-tetrahydroimidazo [1,2-a:5,4-b′]dipyridine] came in with an IC50 of less than 1000 nM.
In turn, `COc1ccc(-c2cn3c4c(nc3cc2C)CCCN4c2ccccc2OC(F)F)cn1` [Example 2, 1-(2-(Difluoromethoxy)phenyl)-8-(6-methoxypyridin-3-yl)-7-methyl-1,2,3,4-tetrahydroimidazo[1,2-a:5,4-b′]dipyridine] showed a half-inhibitory concentration (IC50) of less than 1000 nM.
In turn, `CC(C)(O)c1ccc(-c2ccc3nc4c(n3c2)N(c2ccccc2OC(F)F)CCC4)cc1` [Example 35, 2-(4-(1-(2-(Difluoromethoxy)phenyl)-1,2,3,4-tetrahydroimidazo[1,2-a:5,4-b′]dipyridin-8-yl)phenyl)propan-2-ol] came in with a half-maximal inhibitory concentration (IC50) of less than 1000 nM.
Turning to `COc1ccc(-c2ccc3nc4c(n3c2)N(c2cc(C(F)(F)F)ccc2C)CCC4)cn1` [Example 11, 8-(6-Methoxypyridin-3-yl)-1-(2-methyl-5-(trifluoromethyl)phenyl)-1,2,3,4-tetrahydroimidazo[1,2-a:5,4-b′]dipyridine], the IC50 lay within 1000 to 10000 nM.
The figure for `CCc1ccccc1N1CCCc2nc3ccc(-c4ccc(OC)nc4)cn3c21` [Example 28, 1-(2-Ethylphenyl)-8-(6-methoxypyridin-3-yl)-1,2,3,4-tetrahydroimidazo [1,2-a:5,4-b′]dipyridine] is less than 1000 nM.
Take `Cc1ccc(C)c(N2CCCc3nc4c(C)c(C)c(-c5cnc(N6CCOCC6)nc5)cn4c32)c1` [Example 41, 4-(5-(1-(2,5-Dimethylphenyl)-6,7-dimethyl-1,2,3,4-tetrahydroimidazo [1,2-a:5,4-b′]dipyridin-8-yl)pyrimidin-2-yl)morpholine]: the IC50 was 1000 to 10000 nM.
The figure for `COc1ccc(-c2ccc3nc4c(n3c2)N(c2cc(Cl)ccc2C)CCC4)cn1` [Example 32, 1-(5-Chloro-2-methylphenyl)-8-(6-methoxypyridin-3-yl)-1,2,3,4-tetrahydroimidazo[1,2-a:5,4-b′]dipyridine] is less than 1000 nM; for `Cc1ccc(C)c(N2CCCc3nc4ccc(-c5cnn(C)c5)cn4c32)c1` [Example 12, 1-(2,5-Dimethylphenyl)-8-(1-methyl-1H-pyrazol-4-yl)-1,2,3,4-tetrahydroimidazo [1,2-a:5,4-b′]dipyridine] it is less than 1000 nM; for `CC1CCN(c2ccccc2OC(F)F)c2c1nc1ccc(-c3cnn(C)c3)cn21` (stereo not shown) [Example 40, 1-(2-(Difluoromethoxy)phenyl)-4-methyl-8-(1-methyl-1H-pyrazol-4-yl)-1,2,3,4-tetrahydroimidazo[1,2-a:5,4-b′]dipyridine] it is less than 1000 nM.
Regarding `COc1ccc(-c2ccc3nc4c(n3c2)N(c2ccccc2OC(F)F)CCC4C)cn1` (stereo not shown) [Example 38, 1-(2-(Difluoromethoxy)phenyl)-8-(6-methoxypyridin-3-yl)-4-methyl-1,2,3,4-tetrahydroimidazo[1,2-a:5,4-b′]dipyridine], the IC50 was less than 1000 nM.
For the molecule `COc1ccc(-c2ccc3nc4c(n3c2)N(c2cc(C)ccc2C)CCC4C)cn1` (stereo not shown) [Example 37, 1-(2,5-Dimethylphenyl)-8-(6-methoxypyridin-3-yl)-4-methyl-1,2,3,4-tetrahydroimidazo[1,2-a:5,4-b′]dipyridine], the IC50 was less than 1000 nM.
Turning to `COc1ccc(-c2cn3c4c(nc3cc2Cl)CCCN4c2cc(C)ccc2C)cn1` [Example 23, 7-Chloro-1-(2,5-dimethylphenyl)-8-(6-methoxypyridin-3-yl)-1,2,3,4-tetrahydroimidazo[1,2-a:5,4-b′]dipyridine], the IC50 fell in the range of 1000 to 10000 nM.
For `Cc1ccc(C)c(N2CCC(C)c3nc4ccc(-c5cnn(C)c5)cn4c32)c1` (stereo not shown) [Example 39, 1-(2,5-Dimethylphenyl)-4-methyl-8-(1-methyl-1H-pyrazol-4-yl)-1,2,3,4-tetrahydroimidazo[1,2-a:5,4-b′]dipyridine], the IC50 was less than 1000 nM.
